Results reported in patent US20170027938A1, “Combination” (Novartis AG, priority 2011, published 2017).

Test system: 231/LM2-4 human breast cancer cells
Experiment: Advanced metastatic breast cancer model (231/LM2-4), survival after primary tumor resection
Assay type: in vivo, CB-17 SCID mice
Conditions: for Median survival: therapy initiated 19 days after resection
Text: The original cell line, MDA-MB 231, was a gift from Dr. Jeffrey F. Lemontt in September, 1989, together with other variants of this cell line. Cell line 231/LM2-4 (human breast cancer cells) used in the study was derived by one of the inventors as described in Munoz R, Man S, Shaked Y, et al. Highly efficacious non-toxic treatment for advanced metastatic breast cancer using combination UFT-cyclophosphamide metronomic chemotherapy, Cancer Res 2006; 66:3386-91.
Two million 231/LM2-4 human breast cancer cells were implanted into the mammary fat pad of 6-8 week old female CB-17 SCID mice purchased from Charles River Canada. Twenty days later when tumor volumes were approximately 400 mm^3, the primary tumors were surgically resected. Therapy was initiated 19 days after resection when visceral metastases were established in sites such as lung and liver. Mice were randomized into groups of 4 and treated as follows: 1) Control—vehicle; 2) Low dose metronomic oral topotecan; 3) pazopanib; 4) Low dose metronomic oral topotecan+pazopanib; 5) Maximum tolerated dose topotecan; and 6) maximum tolerated dose topotecan+pazopanib. The schedule and doses of drugs used were metronomic oral topotecan 1 mg/kg/d by gavage, maximum tolerated dose topotecan 1.5 mg/kg by gavage for 5 consecutive days followed by 16 days break ip, pazopanib 150 mg/kg/d by gavage, and control mice were given the topotecan vehicle and/or pazopanib vehicle. The oral topotecan and pazopanib preparations were mixed just prior to administration to avoid possible drug interaction. Institutional guidelines for survival endpoint were followed.

CC[C@@]1(O)C(=O)OCc2c1cc1n(c2=O)Cc2cc3c(CN(C)C)c(O)ccc3nc2-1 [topotecan, (S)-10-[(dimethylamino)methyl]-4-ethyl-4,9-dihydroxy-1H-pyrano[3′,4′:6,7]indolizino [1,2-b]quinoline-3,14-(4H,12H)-dione]
Survival benefit compared to control untreated mice (FIG. 1) (LDM oral topotecan alone, 1 mg/kg/d by gavage): neither low dose metronomic (LDM) oral topotecan alone nor pazopanib alone had any survival benefit | Median survival (low dose metronomic (LDM) oral topotecan alone, 1 mg/kg/d by gavage): 56 days | Median survival (maximum tolerated dose (MTD) topotecan 1.5 mg/kg for 5 consecutive days followed by 16 days break): 63 days
